In paper PMC8305717, “4-Phenethyl-1-Propargylpiperidine-Derived Dual Inhibitors of Butyrylcholinesterase and Monoamine Oxidase B” (Molecules, 2021):
Where “and” joins values, the source holds several entries; their conditions need not be identical. Equal values may be shown once. Entries after “also recorded” stand apart in the source; their conditions may differ.

Assays:
[1] = target: T1, hAChE (Homo sapiens, UniProt P22303); experiment: Ellman method cholinesterase assay, hAChE; type: biochemical; conditions: residual activity at 100 µM compound; 5-min pre-incubation; RA above 50% considered inactive; read-out: RA ± SD (%) at 100 µM, hAChE
T1 construct: gift from Xavier Brazzolotto, Florian Nachon and José Dias (IRBA, Brétigny-sur-Orge, France)
T1 sequence (P22303 32-614): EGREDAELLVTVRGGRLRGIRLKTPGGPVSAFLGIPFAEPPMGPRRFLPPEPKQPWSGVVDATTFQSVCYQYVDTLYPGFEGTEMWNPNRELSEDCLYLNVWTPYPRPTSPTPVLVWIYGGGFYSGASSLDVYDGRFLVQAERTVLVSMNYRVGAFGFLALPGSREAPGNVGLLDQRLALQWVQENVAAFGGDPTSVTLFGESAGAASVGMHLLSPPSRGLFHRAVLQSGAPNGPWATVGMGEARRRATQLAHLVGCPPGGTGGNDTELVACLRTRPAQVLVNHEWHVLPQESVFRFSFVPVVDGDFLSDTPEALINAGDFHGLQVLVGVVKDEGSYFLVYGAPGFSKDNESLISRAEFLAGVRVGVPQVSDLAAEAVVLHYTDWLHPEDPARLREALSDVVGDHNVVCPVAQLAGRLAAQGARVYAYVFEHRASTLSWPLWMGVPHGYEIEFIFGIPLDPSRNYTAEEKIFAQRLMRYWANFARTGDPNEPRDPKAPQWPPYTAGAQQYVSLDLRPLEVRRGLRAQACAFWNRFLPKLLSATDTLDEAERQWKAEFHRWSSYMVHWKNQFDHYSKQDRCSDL
Description: (§1) Inhibitory potencies against human (h)AChE and hBChE were determined using the Ellman method and inhibitory potencies against hMAO-A and hMAO-B were determined with horseradish peroxidase (HRP)-Amplex Red coupled assay.
(§2) The inhibitory potencies of the compounds against the ChEs were determined using the Ellman method. 5,5′-Dithiobis (2-nitrobenzoic acid) (Ellman’s reagent; DTNB, St. Louis, MO, USA), butyrylthiocholine iodide, and acetylthiocholine iodides were from Sigma-Aldrich. Recombinant hAChE and hBChE at the stock concentration of 16.5 mg/mL and 14.5 mg/mL, respectively, were kindly donated by Xavier Brazzolotto, Florian Nachon, and José Dias (IRBA, Brétigny-sur-Orge, France). The enzyme solutions were prepared by dilution of the concentrated stocks in 0.1 M phosphate-buffered solution (pH 8.0). The reactions were carried out in a final volume of 300 µL of 0.1 M phosphate-buffered solution, pH 8.0, containing 370 µM DTNB, 500 μM butyrylthiocholine/acetylthiocholine, and approximately 1 nM or 50 pM hBChE or hAChE, respectively. The reactions were started by the addition of the substrate after 5-min pre-incubation at room temperature. For time-dependency measurements of hBChE inhibition, the pre-incubation time was varied (i.e., 1 min, 5 min, 15 min, 30 min). The final content of the organic solvent (DMSO) was always 1%. The formation of the yellow 5-thio-2-nitrobenzoate anion as a result of the reaction of DTNB with the thiocholines was monitored for 1 min as the change in absorbance at 412 nm, using a 96-well microplate reader (SynergyTM H4; BioTek Instruments, Inc., USA). The initial velocities in the presence (vi) and the absence (vo) of the test compounds were calculated. The inhibitory potencies were expressed as the residual activities, according to RA = (vi − b)/(vo − b), where b is the blank value using phosphate buffer without ChEs. […] The IC50 values were obtained by plotting the residual ChEs activities against the applied inhibitor concentrations, with the experimental data fitted to a four-parameter logistic function (GraphPad Prism 9.0; GraphPad Software Inc., San Diego, CA, USA).

[2] = target: T2, hBChE (Homo sapiens, UniProt P06276); experiment: Ellman method cholinesterase assay, hBChE; type: biochemical; conditions: 5-min pre-incubation; for RA ± SD (%) at 100 µM, hBChE: residual activity at 100 µM compound, RA above 50% considered inactive; for IC50: 3 independent experiments, read-out: IC50 ± SEM, hBChE
T2 construct: gift from Xavier Brazzolotto, Florian Nachon and José Dias (IRBA, Brétigny-sur-Orge, France)
T2 sequence (P06276 29-602): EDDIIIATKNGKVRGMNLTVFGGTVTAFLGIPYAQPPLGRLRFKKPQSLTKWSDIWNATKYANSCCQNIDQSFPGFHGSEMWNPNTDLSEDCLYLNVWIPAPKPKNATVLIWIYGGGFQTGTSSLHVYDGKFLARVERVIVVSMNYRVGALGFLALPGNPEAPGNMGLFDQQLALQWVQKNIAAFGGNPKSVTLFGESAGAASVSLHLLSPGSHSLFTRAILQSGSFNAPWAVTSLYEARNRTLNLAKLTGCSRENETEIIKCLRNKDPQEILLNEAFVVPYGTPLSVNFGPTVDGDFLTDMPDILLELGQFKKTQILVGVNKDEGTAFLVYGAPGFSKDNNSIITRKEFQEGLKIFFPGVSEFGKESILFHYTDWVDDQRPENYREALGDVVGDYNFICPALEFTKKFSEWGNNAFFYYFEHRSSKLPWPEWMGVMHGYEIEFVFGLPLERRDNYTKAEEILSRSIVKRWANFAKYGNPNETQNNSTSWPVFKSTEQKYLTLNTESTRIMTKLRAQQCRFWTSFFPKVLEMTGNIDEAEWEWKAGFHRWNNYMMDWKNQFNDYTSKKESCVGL
Description: as §1, §2

[3] = target: T3, hMAO-A (Homo sapiens, UniProt P21397); experiment: HRP-Amplex Red coupled fluorimetric assay, hMAO-A; type: biochemical; conditions: 15 min incubation at 37 °C; for remaining activity at 100 µM: 0.25 h, residual activity at 100 µM compound, RA above 50% considered inactive, read-out: RA ± SD (%) at 100 µM, hMAO-A; for IC50: 3 independent experiments, read-out: IC50 ± SEM, hMAO-A
T3 construct: purchased Sigma Aldrich; host or cells: BTI-TN-5B1-4 insect cells
T3 sequence (P21397 1-527): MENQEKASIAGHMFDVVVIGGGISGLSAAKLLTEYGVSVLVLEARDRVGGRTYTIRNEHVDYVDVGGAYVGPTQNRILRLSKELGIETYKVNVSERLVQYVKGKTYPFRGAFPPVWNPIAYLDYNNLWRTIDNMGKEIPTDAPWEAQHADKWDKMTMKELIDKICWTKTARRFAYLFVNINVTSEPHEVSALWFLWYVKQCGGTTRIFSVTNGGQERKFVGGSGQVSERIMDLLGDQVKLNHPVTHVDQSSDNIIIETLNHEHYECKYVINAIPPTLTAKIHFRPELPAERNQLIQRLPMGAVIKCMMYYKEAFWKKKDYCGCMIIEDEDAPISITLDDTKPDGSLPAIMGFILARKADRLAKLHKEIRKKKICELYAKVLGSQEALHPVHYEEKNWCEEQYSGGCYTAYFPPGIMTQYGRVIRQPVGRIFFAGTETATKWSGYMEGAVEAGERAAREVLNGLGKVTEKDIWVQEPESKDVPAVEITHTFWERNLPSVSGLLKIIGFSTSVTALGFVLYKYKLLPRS
Description: as §1
(§3) The effects of the test compounds on hMAO were investigated using a fluorimetric assay. Recombinant hMAO, expressed in BTI-TN-5B1-4 insect cells, p-tyramine hydrochloride, and horse-radish peroxidase type II were purchased from Sigma Aldrich, whereas Amplex Red was synthesized as reported previously.
(§4) In brief, 100 µL 50 mM sodium phosphate buffer (pH 7.4, 0.05 vol.% Triton X-114) containing the compounds or the reference inhibitors and hMAO were incubated for 15 min at 37 °C. The reaction was started by adding Amplex Red (final concentration, 250 µM), horseradish peroxidase (final activity, 2 U/mL), and p-tyramine (final concentration, 1 mM). The fluorescence increase (λex = 530 nm, λem = 590 nm) at 37 °C was monitored for 20 min. DMSO was used for control experiments. To determine the blank value (b), phosphate-buffered solution replaced the enzyme. Each measurement was performed in duplicate. The inhibitory potencies were expressed as the residual activities (RA) and IC50 values as described in Section 3.2.1. For the reversibility assay, the previously described protocol was followed.

[4] = target: T4, hMAO-B (Homo sapiens, UniProt P27338); experiment: HRP-Amplex Red coupled fluorimetric assay, hMAO-B; type: biochemical; conditions: 15 min incubation at 37 °C; 3 independent experiments; read-out: IC50 ± SEM, hMAO-B
T4 construct: purchased Sigma Aldrich; host or cells: BTI-TN-5B1-4 insect cells
T4 sequence (P27338 1-520): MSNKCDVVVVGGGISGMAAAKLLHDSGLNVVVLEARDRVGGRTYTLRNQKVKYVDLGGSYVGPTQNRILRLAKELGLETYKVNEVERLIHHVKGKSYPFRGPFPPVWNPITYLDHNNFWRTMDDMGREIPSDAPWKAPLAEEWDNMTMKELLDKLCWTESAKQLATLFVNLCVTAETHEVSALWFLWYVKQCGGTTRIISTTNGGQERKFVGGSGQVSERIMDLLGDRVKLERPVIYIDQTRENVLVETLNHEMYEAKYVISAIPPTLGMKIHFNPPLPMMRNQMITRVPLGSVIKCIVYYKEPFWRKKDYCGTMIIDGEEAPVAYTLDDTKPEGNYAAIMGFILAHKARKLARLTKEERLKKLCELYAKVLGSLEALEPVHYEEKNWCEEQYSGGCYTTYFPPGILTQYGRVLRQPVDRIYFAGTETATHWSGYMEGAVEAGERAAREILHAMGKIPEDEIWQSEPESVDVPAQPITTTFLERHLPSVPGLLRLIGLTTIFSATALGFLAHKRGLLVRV
Description: as §1, §3, §4

[5] = target: T4, hMAO-B; experiment: hMAO-B 100-fold dilution reversibility assay and IC50 shift at various pre-incubation times; type: biochemical; conditions: for Reversibility of hMAO-B inhibition: 100-fold dilution assay; for Time-dependence of hMAO-B inhibition (IC50 shift): various pre-incubation times
Description: as §4
The reversibility was analyzed by one-way ANOVA and post-hoc comparisons were made using two-tailed Student’s t-test. p < 0.05—statistically significant. All data are means ± SEM (n = 2).
Figure 5 (A) A 100-fold dilution assay for hMAO-B inhibitors 12–14. L-Deprenyl was used as an irreversible inhibitor control; safinamide and isatin were used as reversible inhibitor controls. Data are mean values ± SEM (n = 2; each in quadruplicate): ∗, p < 0.05 (one-way ANOVA, with Bonferroni correction, followed by t-tests).

[6] = target: T2, hBChE; experiment: hBChE time-dependency measurements (IC50 shift, varied pre-incubation time); type: biochemical; conditions: pre-incubation 1, 5, 15, 30 min
Description: as §2
Figure 7 The IC50 shift curves for compounds 13–15 during hBChE inhibition.

[7] = system: MAO-B; conditions: binds covalently to N5 of FAD, crystal complex; cited from earlier work

Row | SMILES | remaining activity at 100 µM [1] [%] | RA ± SD (%) at 100 µM, hBChE [2] [%] | remaining activity at 100 µM [3] [%] | IC50 [4] | IC50 [2] | Reversibility of hMAO-B inhibition [5] | Time-dependence of hMAO-B inhibition (IC50 shift) [5] | Time-dependence of hBChE inhibition (IC50 shift) [6] | IC50 [3] [µM] | MAO-B inhibition, type [7]
1 | C#CCN1CCC(CCc2cccc(OC)c2)CC1 [Compound 8, 4-(3-methoxyphenethyl)-1-(prop-2-yn-1-yl)piperidine] | 73.2 ± 8.9 | 55.5 ± 0.2 | 59.8 ± 3.7 | 0.238 ± 0.0269 µM | – | – | – | – | – | –
2 | C#CCN1CCC(CCc2ccc(OC(=O)N(C)CC)cc2)CC1 [Compound 14, 4-(2-(1-(prop-2-yn-1-yl)piperidin-4-yl)ethyl)phenyl ethyl(methyl)carbamate] | 66.1 ± 4.8 | – | 51.2 ± 1.5 | 0.181 ± 0.0287 µM | 75.5 ± 8.4 µM | irreversible | time-dependent hMAO-B inhibition | IC50 shift was absent | – | –
3 | C#CCN1CCC(/C=C/c2ccc(O)cc2)CC1 [Compound 9, (E)-4-(2-(1-(prop-2-yn-1-yl)piperidin-4-yl)vinyl)phenol] | 65.9 ± 3.1 | 64.9 ± 2.0 | – | 12.9 ± 1.1 µM | – | – | – | – | 15.5 ± 0.9 | –
4 | C#CCN1CCC(CCc2cccc(OC(=O)Nc3ccccc3)c2)CC1 [Compound 13, 3-(2-(1-(prop-2-yn-1-yl)piperidin-4-yl)ethyl)phenyl phenylcarbamate] | 51.9 ± 1.4 | – | 54 ± 0.4 | 23.6 ± 3 µM | 4.4 ± 0.8 µM | reversible | absence of IC50 shift; also recorded: did not exhibit time-dependent inhibition | IC50 shift was absent | – | –
5 | C#CCN1CCC(/C=C/c2ccc(F)cc2)CC1 [A] | – | – | – | – | – | – | – | – | – | potent and irreversible MAO-B inhibitor
6 | C#CCN1CCC(/C=C/c2ccc(OC)cc2)CC1 [Compound 6, (E)-4-(4-methoxystyryl)-1-(prop-2-yn-1-yl)piperidine] | 61.9 ± 1.2 | 68.8 ± 0.6 | 52.6 ± 0.7 | – | – | – | – | – | – | –
7 | C#CCN1CCC(CCc2ccc(OC(=O)Nc3ccccc3)cc2)CC1 [Compound 12, 4-(2-(1-(prop-2-yn-1-yl)piperidin-4-yl)ethyl)phenyl phenylcarbamate] | 52.2 ± 1.7 | 60.2 ± 1.8 | 56.7 ± 0.9 | 9.7 ± 1.2 µM | – | reversible | absence of IC50 shift; also recorded: did not exhibit time-dependent inhibition | – | – | –
8 | C#CCN1CCC(CCc2cccc(OC(=O)N(C)CC)c2)CC1 [Compound 15, 3-(2-(1-(prop-2-yn-1-yl)piperidin-4-yl)ethyl)phenyl ethyl(methyl)carbamate] | 60.2 ± 1.8 | – | 69.4 ± 9.4 | 4.3 µM and 8.5 µM | 8.5 µM and 4.3 µM | – | – | time-dependent inhibition | – | –
9 | C#CCN1CCC(CCc2ccc(OC)cc2)CC1 [Compound 7, 4-(4-methoxyphenethyl)-1-(prop-2-yn-1-yl)piperidine] | 73.1 ± 4.3 | 51.2 ± 1.6 | 62.2 ± 1.8 | – | – | – | – | – | – | –
10 | C#CCN1CCC(CCc2cccc(O)c2)CC1 [Compound 11, 3-(2-(1-(prop-2-yn-1-yl)piperidin-4-yl)ethyl)phenol] | 54.7 ± 2.9 | 72.9 ± 2.8 | 63.3 ± 0.4 | 52.5 ± 14.8 µM | – | – | – | – | – | –
11 | C#CCN1CCC(CCc2ccc(O)cc2)CC1 [Compound 10, 4-(2-(1-(prop-2-yn-1-yl)piperidin-4-yl)ethyl)phenol] | 61.4 ± 2.7 | 53.8 ± 0.6 | – | – | – | – | – | – | 34 ± 5.8 | –
